Laboratory results published in US4296206A, “Irreversible anti-glucocorticoids” (United States of America, priority 1980, dated 1981).
Several values for one entry are separate records, joined by “and”; a condition that tells them apart may be missing. Identical values can stand only once. Entries after “also recorded” stand apart in the source; their conditions may differ.

Tests used:
[1] = molecular target: T1, HTC cell glucocorticoid receptors (Rattus norvegicus, UniProt P06536); assay: cell-free exchange assay (3H-dexamethasone exchange binding to pre-formed complexes); conditions: for effect of pre-incubation of steroid-free receptors on subsequent exchange-binding of 3H-dexamethasone: cell-free
T1 construct: crude receptors from a well characterized line of rat hepatoma tissue culture (HTC) cells; endogenous in cells; host or cells: HTC (rat hepatoma tissue culture) cells, crude cytosol
T1 sequence (P06536 1-795): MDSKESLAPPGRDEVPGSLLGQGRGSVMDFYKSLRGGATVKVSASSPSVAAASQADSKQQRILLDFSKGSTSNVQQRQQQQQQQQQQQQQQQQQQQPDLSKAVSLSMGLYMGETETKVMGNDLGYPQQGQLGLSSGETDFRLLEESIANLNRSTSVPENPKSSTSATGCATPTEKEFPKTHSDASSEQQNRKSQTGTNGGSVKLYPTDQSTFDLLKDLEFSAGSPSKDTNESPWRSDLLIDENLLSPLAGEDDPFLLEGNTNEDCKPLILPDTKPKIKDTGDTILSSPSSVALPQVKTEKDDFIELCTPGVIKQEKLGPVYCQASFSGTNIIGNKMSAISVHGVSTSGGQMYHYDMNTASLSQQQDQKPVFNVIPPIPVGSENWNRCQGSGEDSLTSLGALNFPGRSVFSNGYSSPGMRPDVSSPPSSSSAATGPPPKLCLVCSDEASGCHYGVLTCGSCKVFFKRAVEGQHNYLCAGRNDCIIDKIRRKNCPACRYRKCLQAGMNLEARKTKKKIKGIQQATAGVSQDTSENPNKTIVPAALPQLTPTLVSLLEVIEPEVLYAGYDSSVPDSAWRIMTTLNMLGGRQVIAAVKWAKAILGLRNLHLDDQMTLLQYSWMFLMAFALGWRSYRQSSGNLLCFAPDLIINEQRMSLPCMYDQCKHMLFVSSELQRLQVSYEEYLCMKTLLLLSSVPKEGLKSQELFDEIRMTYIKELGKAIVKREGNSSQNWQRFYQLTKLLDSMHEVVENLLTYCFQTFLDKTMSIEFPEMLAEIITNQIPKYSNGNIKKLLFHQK
Experimental: (§1) Ir (nujol) ~3400. 1733, 1659, 1359, 1170 cm^-1. […] 59.98; H. 7.32; S. 7.28.
To examine this possibility in more detail, a determination was made as to whether the cell-free binding of CM to HTC cell receptors is reversible. Using the previously described exchange assay, crude HTC cell receptors were incubated with enough cortisol, or CM, to occupy ~75% of the receptor based on data of FIG. 1. After ~3 hrs, activated charcoal was added to remove free steroid and to inactivate steroid-free receptors. An excess of ^3 H-dexamethasone was then added to exchange-bind to the previously formed receptor-steroid complexes. […] Thus CM is an irreversible inhibitor of one aspect of glucocorticoid action in broken cells, i.e., the ability of glucocorticoids to exchange-bind to receptor-glucocorticoid complexes.
FIG. 5 is based on data obtained in studying inhibition of ^3 H-dexamethasone exchange binding to pre-formed complexes by cortisol-21-mesylate. Using the previously described exchange assay, crude HTC cell receptors were pre-incubated with 6×10^-8 M cortisol or 1.35×10^-6 M CM for 2.8 hrs at 0° (final protein concentration=7.0 mg/ml). After addition of activated charcoal to remove free steroid, and to inactivate steroid-free receptors, followed by centrifugation to pellet the activated charcoal, the pre-incubated cytosols were adjusted to 1.9×10^-8 M ^3 H-dexamethasone ±1.1×10^-5 M ^1 H-dexamethasone. After subsequent incubation for the indicated time, activated charcoal was again added to determine the amount of specifically bound ^3 H-dexamethasone (=total-non-specific binding) that was formed by exchange binding in cortisol or CM pre-incubated cytosols. For comparison, the amount of non-specific binding in cortisol or CM pre-incubated receptor solutions is shown in dashed lines.

[2] = molecular target: T2, dexamethasone induction of TAT in HTC cells (Rattus norvegicus, UniProt P06536); assay: inhibition of dexamethasone induction of TAT activity in whole HTC cells; assay type: cell-based
T2 construct: endogenous in cells; host or cells: HTC (rat hepatoma tissue culture) cells, whole, monolayer or spinner cultures
T2 sequence (P06536 1-795): T1 sequence (P06536 1-795)
Experimental: as §1
Alternatively, CM could be a anti-inducer, or inhibitor of glucocorticoid action. […] After the usual incubation (18 hrs/37°) and work-up, the specific enzyme activity of TAT was plotted against the concentration of that steroid present in varying amounts. The range of each duplicate determination is shown by error bars when it exceeds the area of the data points. The basal level of TAT activity is indicated by the dashed line.

[3] = test system: tyrosine aminotransferase (TAT) induction in HTC cells; assay: induction of tyrosine aminotransferase (TAT) in whole HTC cells; assay type: cell-based, rat
Excerpt: as §1
HTC cells display several biological responses to glucocorticoids. Tyrosine aminotransferase (TAT) is one specific, glucocorticoid inducible enzyme in HTC cells; and previous extensive studies argue that TAT induction in HTC cells is a primary response to glucocorticoids that is initiated by the binding of steroid to a specific, cytoplasmic receptor. […] The basal level of TAT activity is shown by the dashed line.

[4] = molecular target: T2, dexamethasone induction of TAT in HTC cells; assay: TAT induction after pre-treatment of HTC cells and washing (reversibility); assay type: cell-based; conditions: for reversal of pre-incubation effect on dexamethasone induction of TAT by washing the cells: pre-incubation overnight, wash, then 2×10^-8 M dexamethasone
Experimental: One approach to establishing CM as an irreversible inhibitor of TAT induction by glucocorticoids is to determine whether the effects of CM can be reversed by washing the cells.
After incubation at 37°/15 1/2 hrs, ~6×10^7 cells were centrifuged at 600 xg/10 min/22°and resuspended in 200 ml of "conditioned" medium that had also been "incubated" at 37°/15 1/2 hrs. After a second centrifugation, each cell pellet was again resuspended in 210 ml of "conditioned" medium. […] The cells in Wheaton bottles were incubated in a rotating water bath (37°/175 rpm) with 3 ml aliquots being removed at various time points for protein and TAT determinations in the usual manner.

[5] = molecular target: T1, HTC cell glucocorticoid receptors; assay: cell-free competition assay with 3H-dexamethasone, crude HTC cell receptors; assay type: binding
Excerpt: as §1
In general, the introduction of bulky substituents on the C21 of glucocorticoids results in derivatives with a reduced affinity for glucocorticoid receptors as described, for example, in Failla, D. et al., Proc. Nat. Acad. Sci. USA, 72, 3849-3852 (1975). […] The data for FIG. 1 was obtained from a determination of relative affinities of cortisol and cortisol-21-mesylate for HTC cell glucocorticoid receptors in a cell-free competition assay. Duplicate crude HTC cell receptor solutions were incubated for 3 hrs at 0° with 5.6×10^-9 M ^3 H-dexamethasone and varying concentrations of cortisol, or CM (final protein concentration=5.1 mg/ml). A 500 fold excess of ^1 H-dexamethasone was used to determine the level of non-specific binding of ^3 H-steroid. The average specifically bound ^3 H-dexamethasone in the presence of varying concentrations of cortisol or CM was plotted as % of the uncompeted control (variation less than ±4%).

[6] = cell toxicity in HTC cells (protein content, cell number, trypan blue exclusion); conditions: rat
rats = assay: experiment with rats, daily intraperitoneal injections; assay type: in vivo, rat
Excerpt: In the experiments and uses of CM and DM described above, the toxicity of either compound was negligible. […] In order to be more useful in animals and people, two approaches can be used to reduce this toxicity. […] Second, alternative routes of administration (e.g., oral, intravenous, intramuscular and subcutaneous) might be less toxic.

in vitro = conditions: rat, htc cells

Structure (SMILES): C[C@@H]1C[C@H]2[C@@H]3CCC4=CC(=O)C=C[C@]4(C)[C@@]3(F)[C@@H](O)C[C@]2(C)[C@@]1(O)C(=O)COS(C)(=O)=O [DM, 16α-methyl-9α-fluoro-1,4-pregnadiene-11β, 17α, 21-triol-3, 20-dione-21-methane-sulfonate]
- effect of pre-incubation of steroid-free receptors on subsequent exchange-binding of 3H-dexamethasone [1]: inhibits
- inhibition of TAT induction by dexamethasone in whole cells [2]: potent inhibitors
- Emax ([3]; Rattus norvegicus, whole HTC cells, read-out: induction of TAT in HTC cells, % of full induction): ~25%
- reversal of pre-incubation effect on dexamethasone induction of TAT by washing the cells [4]: cannot be reversed by washing the cells
- cell-free affinity for the glucocorticoid receptors of HTC cells [5]: low but significant
- affinity for cell free receptors, fold higher than CM ([5]; cell free receptors): approximately 10 fold

Structure (SMILES): C[C@]12CCC(=O)C=C1CC[C@@H]1[C@@H]2[C@@H](O)C[C@@]2(C)[C@H]1CC[C@]2(O)C(=O)COS(C)(=O)=O [CM, 4-pregnene-11β, 17α, 21-triol-3, 20-dione-21-methanesulfonate]
- effect on cell number (HTC cells): no effect
- effect on total cell protein (HTC cells): ~1% increase to 6% decrease
- cytotoxicity at 13 µM [6]: 12%
- viability [6]: 93 to 94%
- effect of pre-incubation of steroid-free receptors on subsequent exchange-binding of 3H-dexamethasone [1]: inhibits
- inhibition at 1.35 µM ([1]; pre-incubation 1.35×10^-6 M CM, ~3 hrs at 0°, read-out: reduction of the ability of receptors to exchange-bind 3H-dexamethasone): ~75%
- anti-glucocorticoid activity in rats (rats; daily intraperitoneal injections of 10-50 mg per kilogram): some anti-glucocorticoid activity
- toxicity in rats at higher doses (rats; ≥100 mg/kilogram, intraperitoneal): peritonitis and death
- Ki [2]: ~100 nM
- inhibition of TAT induction by dexamethasone in whole cells [2]: potent inhibitors
- TAT induction by 2×10^-8 M dexamethasone in the presence of the compound ([2]; 1.3×10^-6 M CM): slight but significant increase in TAT
- TAT induction by 10^-7 M cortisol in the presence of the compound ([2]; 1.3×10^-6 M CM): unable to induce TAT
- duration of activity as anti-glucocorticoid in HTC cell cultures ([2]; 37°, tissue culture): ~ 18 hrs and 17-18 hrs
- time after which no longer completely inhibitory (some inducibility of TAT returns) ([2]; HTC cells): about 24 hr
- induction of TAT in whole HTC cells ([3]; 18 hrs at 37°): completely inactive; also recorded: does not induce TAT
- cytotoxicity (in vitro): 20%
- magnitude of TAT induction 24 hrs after the wash procedure in pre-treated, post-dexamethasone treated cells ([4]; 24 hrs after wash): significantly reduced; also recorded: only partial induction
- appearance of TAT in pre-treated cells, delay after TAT induction in EtOH or progesterone pre-treated cells ([4]; average of three experiments): 2.7 h
- time without TAT induction after the wash procedure in pre-treated, post-dexamethasone treated cells ([4]; pre-CM, post-dexamethasone): ~ 8 hrs and 6-8 hrs
- reversal of pre-incubation effect on dexamethasone induction of TAT by washing the cells [4]: can not reverse; also recorded: cannot be reversed by washing the cells
- cell-free affinity for the glucocorticoid receptors of HTC cells [5]: low but significant
- affinity for glucocorticoid receptors, fold lower than that of the parent steroid cortisol ([5]; 3 hrs at 0°, 5.6×10^-9 M 3H-dexamethasone, crude HTC cell receptors): 15 fold
- apparent Kd with HTC cell glucocorticoid receptors, times greater than the Kd of cortisol ([5]; CM): 15 times
